Literature values as cited in patent US10717749B2, “Macrocyclic sulfondiimine compounds” (BAYER PHARMA AKTIENGESELLSCHAFT, priority 2015, dated 2020).

Settings: in vivo; cited from earlier work

Q: For `C[N+]1(C)[C@@H]2C[C@@H](OC(=O)C(O)(c3cccs3)c3cccs3)C[C@H]1[C@@H]1O[C@@H]12` [tiotropium], which “duration of protection against bronchospasms” value is on record?
A: more than 6 hours
